Values of other authors in article PMC3501146 (ACS Chemical Biology, 2012).

System: Lactococcus lactis subsp. cremoris HP
Settings: indicator strain L. lactis subsp. cremoris HP

Q: For “nisin (ITSISLCTPGCKTGALMGCNMKTATCHCSIHVSK; not fully specified; Lantibiotic nisin-A; UniProt P13068 24-57, looked up)”, which “MIC against L. lactis subsp. cremoris HP (nisin)” value is on record?
A: 0.032 µM
